Organism: Rattus norvegicus
Assay: DrugMatrix - Regimen: Daily Repeat
Format: toxicity, organism-based, Sprague-Dawley
Parameters: regimen Daily Repeat, gender Male, age 6-8 weeks
Conditions: in vivo, po, route oral GAVAGE, […]; for ABSOLUTE BASOPHIL / ABSOLUTE EOSINOPHIL / ABSOLUTE LYMPHOCYTE / ABSOLUTE MONOCYTE / ABSOLUTE SEGMENTED NEUTROPHIL / BASOPHIL / EOSINOPHIL / ERYTHROCYTE COUNT / HEMATOCRIT / HEMOGLOBIN / LEUKOCYTE COUNT / LYMPHOCYTE / MEAN CORPUSCULAR HEMOGLOBIN / MEAN CORPUSCULAR HEMOGLOBIN CONCENTRATION / MEAN CORPUSCULAR VOLUME / MONOCYTE / NEUTROPHIL / NUCLEATED RED BLOOD CELLS / PLATELET COUNT: tissue Blood; for ALANINE AMINOTRANSFERASE / ALKALINE PHOSPHATASE / ASPARTATE AMINOTRANSFERASE / BLOOD UREA NITROGEN / CARBON DIOXIDE / CHLORIDE / CHOLESTEROL / CREATINE PHOSPHOKINASE / CREATININE / GLUCOSE / LACTATE DEHYDROGENASE / LIPASE / PHOSPHORUS / POTASSIUM / SODIUM / TOTAL BILIRUBIN / TOTAL PROTEIN / URIC ACID: tissue Plasma
[1] = 0 mg/kg, 72 h, dose level Control, time 3 day
[2] = 0 mg/kg, 120 h, dose level Control, time 5 day
[3] = 10 mg/kg, 72 h, dose level Low, time 3 day

CCOC(=O)C1=C(C)NC(C)=C(C(=O)OC)C1c1cccc([N+](=O)[O-])c1 (stereo not given) [NITRENDIPINE]
ABSOLUTE BASOPHIL [1]: 0 CELLS/uL
ABSOLUTE EOSINOPHIL [1]: 0 CELLS/uL
ABSOLUTE LYMPHOCYTE [1]: 9244.83 CELLS/uL
ABSOLUTE MONOCYTE [1]: 102 CELLS/uL
ABSOLUTE SEGMENTED NEUTROPHIL [1]: 869.83 CELLS/uL
BASOPHIL [1]: 0%
EOSINOPHIL [1]: 0%
ERYTHROCYTE COUNT [1]: 5.43 x10E6/uL
HEMATOCRIT [1]: 34.03%
HEMOGLOBIN [1]: 13.27 G/DL
LEUKOCYTE COUNT [1]: 10.22 x10E3/uL
LYMPHOCYTE [1]: 90.33%
MEAN CORPUSCULAR HEMOGLOBIN [1]: 24.48 pg
MEAN CORPUSCULAR HEMOGLOBIN CONCENTRATION [1]: 39.03 G/DL
MEAN CORPUSCULAR VOLUME [1]: 62.75 fL
MONOCYTE [1]: 1%
NEUTROPHIL [1]: 8.67%
NUCLEATED RED BLOOD CELLS [1]: 0.17 /100WBC
PLATELET COUNT [1]: 989 x10E3/uL
ALANINE AMINOTRANSFERASE [1]: 77 u/L
ALKALINE PHOSPHATASE [1]: 464.83 u/L
ASPARTATE AMINOTRANSFERASE [1]: 89.83 u/L
BLOOD UREA NITROGEN [1]: 12.17 mg/dL
CARBON DIOXIDE [1]: 34.17 mmol/L
CHLORIDE [1]: 98.33 MEQ/L
CHOLESTEROL [1]: 75.17 mg/dL
CREATINE PHOSPHOKINASE [1]: 367.67 u/L
CREATININE [1]: 0.16 mg/dL
GLUCOSE [1]: 142.67 mg/dL
LACTATE DEHYDROGENASE [1]: 139.33 u/L
LIPASE [1]: 9.5 u/L
PHOSPHORUS [1]: 10.85 mg/dL
POTASSIUM [1]: 6.38 MEQ/L
SODIUM [1]: 143.2 MEQ/L
TOTAL BILIRUBIN [1]: 0.2 mg/dL
TOTAL PROTEIN [1]: 5.77 G/DL
URIC ACID [1]: 0.7 mg/dL
ABSOLUTE BASOPHIL [2]: 0 CELLS/uL
ABSOLUTE EOSINOPHIL [2]: 0 CELLS/uL
ABSOLUTE LYMPHOCYTE [2]: 8295.33 CELLS/uL
ABSOLUTE MONOCYTE [2]: 84.67 CELLS/uL
ABSOLUTE SEGMENTED NEUTROPHIL [2]: 970 CELLS/uL
BASOPHIL [2]: 0%
EOSINOPHIL [2]: 0%
ERYTHROCYTE COUNT [2]: 5.74 x10E6/uL
HEMATOCRIT [2]: 36.22%
HEMOGLOBIN [2]: 13.85 G/DL
LEUKOCYTE COUNT [2]: 9.35 x10E3/uL
LYMPHOCYTE [2]: 88.67%
MEAN CORPUSCULAR HEMOGLOBIN [2]: 24.13 pg
MEAN CORPUSCULAR HEMOGLOBIN CONCENTRATION [2]: 38.25 G/DL
MEAN CORPUSCULAR VOLUME [2]: 63.08 fL
MONOCYTE [2]: 1%
NEUTROPHIL [2]: 10.33%
NUCLEATED RED BLOOD CELLS [2]: 0.17 /100WBC
PLATELET COUNT [2]: 883.83 x10E3/uL
ALANINE AMINOTRANSFERASE [2]: 64.5 u/L
ALKALINE PHOSPHATASE [2]: 425.67 u/L
ASPARTATE AMINOTRANSFERASE [2]: 88.5 u/L
BLOOD UREA NITROGEN [2]: 14.17 mg/dL
CARBON DIOXIDE [2]: 30.5 mmol/L
CHLORIDE [2]: 100.33 MEQ/L
CHOLESTEROL [2]: 55.33 mg/dL
CREATINE PHOSPHOKINASE [2]: 287.17 u/L
CREATININE [2]: 0.2 mg/dL
GLUCOSE [2]: 162.83 mg/dL
LACTATE DEHYDROGENASE [2]: 111.33 u/L
LIPASE [2]: 10.5 u/L
PHOSPHORUS [2]: 10.32 mg/dL
POTASSIUM [2]: 5.13 MEQ/L
SODIUM [2]: 143.93 MEQ/L
TOTAL BILIRUBIN [2]: 0.17 mg/dL
TOTAL PROTEIN [2]: 5.9 G/DL
URIC ACID [2]: 0.77 mg/dL
ABSOLUTE BASOPHIL [3]: 0 CELLS/uL
ABSOLUTE EOSINOPHIL [3]: 0 CELLS/uL
ABSOLUTE LYMPHOCYTE [3]: 9214.67 CELLS/uL
ABSOLUTE MONOCYTE [3]: 145.33 CELLS/uL
ABSOLUTE SEGMENTED NEUTROPHIL [3]: 940 CELLS/uL
BASOPHIL [3]: 0%
EOSINOPHIL [3]: 0%
ERYTHROCYTE COUNT [3]: 5.43 x10E6/uL
HEMATOCRIT [3]: 33.93%
HEMOGLOBIN [3]: 13.03 G/DL
LEUKOCYTE COUNT [3]: 10.3 x10E3/uL
LYMPHOCYTE [3]: 89.33%
MEAN CORPUSCULAR HEMOGLOBIN [3]: 24.03 pg
MEAN CORPUSCULAR HEMOGLOBIN CONCENTRATION [3]: 38.4 G/DL
MEAN CORPUSCULAR VOLUME [3]: 62.6 fL
MONOCYTE [3]: 1.33%
NEUTROPHIL [3]: 9.33%
NUCLEATED RED BLOOD CELLS [3]: 0 /100WBC
PLATELET COUNT [3]: 1124 x10E3/uL
ALANINE AMINOTRANSFERASE [3]: 72 u/L
ALKALINE PHOSPHATASE [3]: 422 u/L
ASPARTATE AMINOTRANSFERASE [3]: 86 u/L
BLOOD UREA NITROGEN [3]: 10.33 mg/dL
CARBON DIOXIDE [3]: 34.33 mmol/L
CHLORIDE [3]: 98.67 MEQ/L
CHOLESTEROL [3]: 71.67 mg/dL
CREATINE PHOSPHOKINASE [3]: 319.33 u/L
CREATININE [3]: 0.11 mg/dL
GLUCOSE [3]: 145.33 mg/dL
LACTATE DEHYDROGENASE [3]: 130.67 u/L
LIPASE [3]: 11.33 u/L
PHOSPHORUS [3]: 10.8 mg/dL
POTASSIUM [3]: 6.13 MEQ/L
SODIUM [3]: 144.4 MEQ/L
TOTAL BILIRUBIN [3]: 0.2 mg/dL
TOTAL PROTEIN [3]: 5.6 G/DL
